The text below walks through data of PMC7037682, “Herb–Drug Interaction of Red Ginseng Extract and Ginsenoside Rc with Valsartan in Rats” (Molecules, 2020).

Data set [1] deals with T1, OATP1B3 (Homo sapiens, UniProt Q9NPD5).
T1 sequence (Q9NPD5 1-702): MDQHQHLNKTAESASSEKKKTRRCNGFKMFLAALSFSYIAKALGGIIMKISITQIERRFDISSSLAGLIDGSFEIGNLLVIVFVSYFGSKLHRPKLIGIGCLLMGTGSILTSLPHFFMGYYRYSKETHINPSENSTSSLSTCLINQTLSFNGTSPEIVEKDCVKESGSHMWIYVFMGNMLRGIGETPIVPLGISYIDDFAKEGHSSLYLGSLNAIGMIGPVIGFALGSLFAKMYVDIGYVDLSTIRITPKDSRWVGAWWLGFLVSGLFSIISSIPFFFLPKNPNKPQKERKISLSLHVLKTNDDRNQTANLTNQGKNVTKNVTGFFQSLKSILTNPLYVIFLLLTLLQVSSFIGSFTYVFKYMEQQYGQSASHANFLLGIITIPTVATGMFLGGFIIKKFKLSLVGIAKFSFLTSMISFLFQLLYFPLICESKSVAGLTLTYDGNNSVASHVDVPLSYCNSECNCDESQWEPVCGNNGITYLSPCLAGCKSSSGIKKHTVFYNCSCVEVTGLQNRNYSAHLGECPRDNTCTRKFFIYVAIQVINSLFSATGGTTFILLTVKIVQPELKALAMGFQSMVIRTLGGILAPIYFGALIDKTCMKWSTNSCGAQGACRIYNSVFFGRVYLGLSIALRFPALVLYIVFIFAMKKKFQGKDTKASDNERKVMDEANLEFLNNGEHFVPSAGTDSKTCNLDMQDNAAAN
The experiment in a line: Inhibition of OATP1B3-mediated [3H]estradiol-17β-D-glucuronide uptake in HEK293-OATP1B3 cells. On the procedure: (§1) HEK293 cells overexpressing the OCT1, OCT2, OAT1, OAT3, OATP1B1, and OATP1B3 transporters (HEK293-OCT1, -OCT2, -OAT1, -OAT3, -OATP1B1, and -OATP1B3, respectively) and HEK293-mock cells (Corning Life Sciences; Woburn, MA, USA) were used and characterized as previously described.
(§2) HEK293 cells overexpressing drug transporters and HEK293-mock cells were seeded in poly-D-lysine-coated 96-well plates at a density of 10^5 cells/well and were cultured in DMEM supplemented with 10% FBS, 5 mM non-essential amino acids, and 2 mM sodium butyrate in a humidified atmosphere with 8% CO2 at 37 °C.
(§3) To examine the effects of ginsenosides and typical inhibitors on transporter activity, aliquots (100 μL) of HBSS containing the probe substrate and ginsenosides or typical inhibitors were added to the cells after aspirating pre-incubated HBSS. The concentrations and probe substrates were as follows: 0.1 μM [^3H]MPP^+ for OCT1 and OCT2, 0.1 μM [^3H]PAH for OAT1, 0.1 μM [^3H]ES for OAT3 and OATP1B1, and 0.1 μM [^3H]EG for OATP1B3. […] Then the uptake of probe substrates into HEK293-mock cells and HEK293-OCT1, -OCT2, -OAT1, -OAT3, -OATP1B1, and -OATP1B3 cells in the presence and absence of typical inhibitor or each ginsenoside with previously described concentration range was measured for 5 min. Immediately after placing the plates on ice, the cells were washed three times with 100 μL of ice-cold HBSS, followed by lysing with 50 μL of 10% SDS solution and mixing with 150 μL of Optiphase cocktail solution (Perkin Elmer Inc., Boston, MA, USA). The radioactivity of the probe substrates in the cells was determined using a liquid scintillation counter.
(§4) In the inhibition studies, the uptake rate of substrate by HEK293 cells overexpressing the respective transporters was used as the control (100%) and the uptake rate of substrates in the presence of typical inhibitors or ginsenosides expressed as a percentage of the control. The inhibition data were fitted to an inhibitory effect model using Sigma plot (version 10.0; Systat Software Inc., San Jose, CA, USA). IC50 value indicated the half-maximal inhibitory concentration of the inhibitor.

Details of data set [2]: method as in PMID 25297453, PMID 22139693, PMID 26725427. The settings on record: rats, cited from earlier work.
Data set [3] concerns the target T2, OATP1B1 (Homo sapiens, UniProt Q9Y6L6).
T2 sequence (Q9Y6L6 1-691): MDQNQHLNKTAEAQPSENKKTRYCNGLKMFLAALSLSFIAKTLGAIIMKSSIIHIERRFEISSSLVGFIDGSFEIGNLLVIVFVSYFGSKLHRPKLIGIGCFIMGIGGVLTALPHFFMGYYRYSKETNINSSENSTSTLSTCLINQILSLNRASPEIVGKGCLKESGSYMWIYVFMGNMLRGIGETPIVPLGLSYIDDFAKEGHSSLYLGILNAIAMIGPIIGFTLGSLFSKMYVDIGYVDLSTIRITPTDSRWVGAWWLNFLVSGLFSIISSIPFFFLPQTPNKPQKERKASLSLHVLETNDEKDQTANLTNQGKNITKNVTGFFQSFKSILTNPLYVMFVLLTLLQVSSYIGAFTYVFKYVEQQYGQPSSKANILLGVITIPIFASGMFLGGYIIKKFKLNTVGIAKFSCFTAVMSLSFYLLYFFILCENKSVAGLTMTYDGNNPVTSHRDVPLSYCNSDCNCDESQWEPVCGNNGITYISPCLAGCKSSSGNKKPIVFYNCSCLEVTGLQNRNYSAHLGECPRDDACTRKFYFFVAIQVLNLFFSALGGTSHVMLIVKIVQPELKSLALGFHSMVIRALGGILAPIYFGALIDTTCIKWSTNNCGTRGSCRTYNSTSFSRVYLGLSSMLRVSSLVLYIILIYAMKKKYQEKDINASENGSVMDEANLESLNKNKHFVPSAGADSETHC
The data set is described as follows: Inhibition of OATP1B1-mediated [3H]estrone-3-sulfate uptake in HEK293-OATP1B1 cells. The method, then: as §1, §2, §3, §4

A short description of data set [4]: Literature rifampin plasma concentration in rats after oral 20 mg/kg. The conditions noted are these: oral rifampin 20 mg/kg, from literature plasma concentration and protein binding ref 23, 39, 40. In kind it is in vivo, rat.
For data set [5], the target named is T1, OATP1B3. The experiment in a line: Inhibition of OATP1B3-mediated valsartan uptake in HEK293-OATP1B3 cells. In kind it is cell-based. Further details: host or cells: HEK293. The settings on record: 5 μM valsartan, 5 min. On the procedure:
(§5) Transporter mediated uptake of probe substrates or valsartan was calculated by subtracting the uptake rate of probe substrates or valsartan into HEK293-mock cells from that into HEK293 cells expressing respective transporters.

Data set [6] deals with T2, OATP1B1. The experiment in a line: Inhibition of OATP1B1-mediated valsartan uptake in HEK293-OATP1B1 cells. Type of data set: cell-based. The conditions noted are these: 5 μM valsartan, 5 min. On the set-up: host or cells: HEK293. The method, then:
as §5

Details of data set [7]: method as in PMID 25297453, PMID 22139693, PMID 26725427. The settings on record: rats ref 23, 39, 40; cited from earlier work.

What is called IC50 is the midpoint of a concentration-inhibition curve. Higher therefore signals lower potency. On to `CO[C@H]1/C=C/O[C@@]2(C)Oc3c(C)c(O)c4c(O)c(c(/C=N/N5CCN(C)CC5)c(O)c4c3C2=O)NC(=O)/C(C)=C\C=C\[C@H](C)[C@H](O)[C@@H](C)[C@@H](O)[C@@H](C)[C@H](OC(C)=O)[C@@H]1C` [Rifampin, rifampin, reference compound], for which the IC50 on OATP1B3 [1] worked out at 0.81 µM; on OATP1B1 [3] it was 28.6 µM; on OATP1B3 [5], 3.6 µM; on OATP1B1 [6], 13.8 µM. For the same compound, in data set [2] (oral rifampin 20 mg/kg ref 23, 39, 40), the Cmax of rifampin is 15700 to 24500 ng/mL. The “plasma concentration of rifampin” value in data set [2] (oral rifampin 20 mg/kg, for 12 h ref 23, 39, 40) is reported as “over 5 μg/mL”. Besides, the “unbound concentration of rifampin” value in data set [4] lay in the range of 4.7 to 22.9 µM. For the same compound, the “protein binding of rifampin” value in data set [7] is 23.1%.
